Results: US5798381A, “Biologically active bistramides, process for their production and their applications in therapy” (Institut Francais de Recherche Scientifique pour le …, priority 1993, dated 1998)
In brackets after ≈: the same amount, converted by molar mass. Entries after “also recorded” stand apart in the source; their conditions may differ. Like-named read-outs stand apart in the source and are kept apart here.

Legend:
[1] = test system: NSCLC solid tumours (xenograft); format: in vivo, nude mouse
Description: The anti-tumoural activity of the products of the invention was studied against solid tumours of NSCLC type grafted onto a nude mouse (D. Riou, C. Roussakis, J. F. Biard, J. F. Verbist: "Comparative study of antitumor activity of bistramides A, D and K against non-small cell bronchopulmonary carcinoma", Anticancer Research, 1993, 13, 2321-2334). Each mouse received 0.2 ml of a cell solution obtained by the mechanical dispersion of about 1 g of excised mouse tumour in 4.8 ml of a sterile saline solution. The sub-cutaneous grafted tumours were measured over their long length L and their short length 1. The tumoural volume was evaluated according to the formula Vt=L×1^2 /2. The tumoural growth on day d was calculated by the formula Vtd /Vtd0 for each mouse, Vtd0 being the tumoural volume at the start of treatment.
The curve "------.circle-solid.------ " relates to the control experiment, the curves "--- .diamond-solid.---", "-- .quadrature.--" and "-- .box-solid.--" to experiments with 10, 20 and 5 mg/kg of bistramide D respectively and the curve "----*----" to an experiment with 10 mg/kg of bistramide K. Each point represents the average tumoural growth for 6 mice.
In these experiments, bistramide K is injected at the rate of 10 mg/kg by intraperitoneal route for 16 days and bistramide D at the rate of 5 mg/kg by intraperitoneal route every day for 16 days; at 10 mg/kg by intravenous route on days 1, 5, 9, 14, and at 20 mg/kg by intravenous route on days 1, 5, 9, 14.

mice = test: Acute toxicity (LD50), intravenous injection in mice; format: in vivo; conditions: statement in words
Description: The LD50 of these bistramides is in fact of the order of 1.7 mg/kg (measured in mice, after injection of the product by intravenous route as a single dose).
The "LD50 " of the products of the invention has been measured for mice after injection of the products by intravenous route.

B16 = test: Cytotoxicity, 50% inhibition of cell growth, B16; format: cell-based
Description: (§1) The cytoxicity results are recorded hereafter as the IC50 in μg/ml (concentration corresponding to a 50% inhibition of cell growth) on 6 tumoural lines namely KB, P388, P388/dox (resistant to doxorubicin), B16 and H429 and NSCLC-N6, which are human cells of non-small cell bronchopulmonary carcinoma type.
(§2) The determinations were carried out according to the protocol given in Cancer Chemother. Pharmacol. (1991) 28:283-292 by Roussakis et al.

P388 (p388s) = test: Cytotoxicity, 50% inhibition of cell growth, P388; format: cell-based; conditions: Mus musculus, P388/S, read-out: IC50 (50% inhibition of cell growth)
Description: as §1, §2

NSCLC.N6-L16 = test: Cytotoxicity, 50% inhibition of cell growth, NSCLC-N6; format: cell-based; conditions: Homo sapiens
Description: as §1, §2

P388/dox (p388r) = test: Cytotoxicity, 50% inhibition of cell growth, P388/dox (resistant to doxorubicin); format: cell-based; conditions: Mus musculus
Description: as §1, §2

HT 29 = test: Cytotoxicity, 50% inhibition of cell growth, HT 29; format: cell-based; conditions: Homo sapiens
Description: as §1, §2

KB = test: Cytotoxicity, 50% inhibition of cell growth, KB; format: cell-based; conditions: Homo sapiens, read-out: IC50 (50% inhibition of cell growth)
Description: as §1, §2

C/C=C/C(=O)CC1CCC(C)C(CC(=O)NCC(O)C(C)C(=O)NCCCC2OC3(CCCC(CCC(C)/C=C(\C)C(C)O)O3)CCC2C)O1 (stereo not drawn) [Bistramide A]
toxicity under the conditions of the xenograft test ([1]; mouse, in vivo): too toxic for an anti-tumoural effect to be observed
toxicity in vivo (mice): high toxicity; also recorded: toxic
toxicity in vivo (mice; listed as A bistramide): acute toxicity

CCCC(=O)CC1CCC(C)C(CC(=O)NCC(O)C(C)C(=O)NCCCC2OC3(CCCC(CCC(C)C=C(C)C(C)O)O3)CCC2C)O1 (stereo not drawn) [Bistramide B]
toxicity in vivo (mice): high toxicity

C/C=C/C(=O)CC1CCC(C)C(CC(=O)NCC(O)C(C)C(=O)NCCCC2OC3(CCCC(CCC(C)C=C(C)C(C)=O)O3)CCC2C)O1 (stereo not drawn) [Bistramide C]
toxicity in vivo (mice): high toxicity

C/C=C/C(O)C/C=C/CC(C)C(O)CC(=O)NCC(O)C(C)C(=O)NCCCC1OC2(CCCC(CCC(C)/C=C(\C)C(C)O)O2)CCC1C (stereo not drawn) [Bistramide K]
IC50 (B16; Mus musculus, B16; read-out: IC50 (50% inhibition of cell growth)): 1.9 µg/mL (≈ 2.69 µM)
IC50 (P388 (p388s); p388s): 0.57 µg/mL (≈ 0.806 µM)
tumoural growth relative to controls (100%) ([1]; 10 mg/kg, IP, for 16 days, at the end of 30 days): 49%
IC50 (NSCLC.N6-L16; NSCLC.N6-L16, read-out: IC50 (50% inhibition of cell growth)): 3.23 µg/mL (≈ 4.57 µM)
IC50 (P388/dox (p388r)): > 10 µg/mL
IC50 (HT 29; HT 29, read-out: IC50 (50% inhibition of cell growth)): 5.6 µg/mL (≈ 7.92 µM)
IC50 (KB): > 10 µg/mL

C/C=C\C(=O)CC1CCC(C)C(CC(=O)NCC(O)C(C)C(=O)NCCCC2OC3(CCCC(CCC(C)/C=C(\C)C(C)O)O3)CCC2C)O1 (stereo not drawn) [Bistramide L]
IC50 (B16; Mus musculus, B16, read-out: IC50 (50% inhibition of cell growth)): 2.4 µg/mL (≈ 3.4 µM)
IC50 (P388 (p388s)): 0.48 µg/mL (≈ 0.681 µM)
IC50 (NSCLC.N6-L16; NSCLC-N6, read-out: IC50 (50% inhibition of cell growth)): 0.12 µg/mL (≈ 0.17 µM)
IC50 (P388/dox (p388r)): 0.12 µg/mL (≈ 0.17 µM)
IC50 (HT 29; HT-29, read-out: IC50 (50% inhibition of cell growth)): 0.29 µg/mL (≈ 0.411 µM)
IC50 (KB): 0.72 µg/mL (≈ 1.02 µM)
